Experiments:
smallflower flatsedge = experiment: Test B flood test smallflower flatsedge; assay type: in vivo, Cyperus difformis
Method in brief: (§1)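 Flood test on plants grown to the 2-leaf stage; treated plants kept in greenhouse twelve to sixteen days, then visually rated against controls on a 0 (no effect) to 10 (complete control) scale.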

crabgrass = experiment: Test B pre/postemergence crabgrass; assay type: in vivo, Digitaria sanguinalis
Method in brief: (§2)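 Test chemicals in a non-phytotoxic solvent mixture with surfactant were sprayed preemergence onto planted seeds and postemergence onto plants 2 to 18 cm tall (1- to 4-leaf stage). After twelve to sixteen days in a greenhouse, injury was visually rated against untreated controls from 0 (no effect) to 10 (complete control).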

giant foxtail = experiment: Test B pre/postemergence giant foxtail; assay type: in vivo, Setaria faberii
Method in brief: as §2

blackgrass = experiment: Test B pre/postemergence blackgrass; assay type: in vivo, Alopecurus myosuroides
Method in brief: as §2

morningglory = experiment: Test B pre/postemergence morningglory; assay type: in vivo, Ipomoea hederacea
Method in brief: as §2

bedstraw = experiment: Test B pre/postemergence bedstraw; assay type: in vivo, Galium aparine
Method in brief: as §2

rice = experiment: Test B flood test rice; assay type: in vivo, Oryza sativa
Method in brief: as §1

pigweed = experiment: Test B pre/postemergence pigweed; assay type: in vivo, Amaranthus retroflexus
Method in brief: as §2

cocklebur = experiment: Test B pre/postemergence cocklebur; assay type: in vivo, Xanthium strumarium
Method in brief: as §2

soybean = experiment: Test B pre/postemergence soybean; assay type: in vivo, Glycine max
Method in brief: as §2

surinam grass = experiment: Test B pre/postemergence surinam grass; assay type: in vivo, Brachiaria decumbens
Method in brief: as §2

bamyardgrass = experiment: Test B flood test barnyardgrass; assay type: in vivo, Echinochloa crus-galli
Method in brief: as §1

wild oat = experiment: Test B pre/postemergence wild oat; assay type: in vivo, Avena fatua
Method in brief: as §2

wheat = experiment: Test B pre/postemergence wheat; assay type: in vivo, Triticum aestivum
Method in brief: as §2

corn = experiment: Test B pre/postemergence corn; assay type: in vivo, Zea mays
Method in brief: as §2

velvetleaf = experiment: Test B pre/postemergence velvetleaf; assay type: in vivo, Abutilon theophrasti
Method in brief: as §2

[1] = Rate 31 g/ha, Pre-emergence section (flood test species), scale 0 to 10
[2] = Rate 62 g/ha, headed Pre-emergence (flood test species), scale 0 to 10 (0 no effect, 10 complete control)
[3] = Rate 125 g/ha, Pre-emergence, flood test species, scale 0 to 10 where 0 is no effect and 10 is complete control
[4] = Rate 250 g/ha, Pre-emergence, flood-test species, scale 0 to 10, 0 is no effect, 10 is complete control
[5] = Postemergence, Rate 31 g/ha, visual rating, scale 0 to 10 (0 no effect, 10 complete control)
[6] = Preemergence, Rate 31 g/ha, visual rating, scale 0 to 10 (0 no effect, 10 complete control)
[7] = Preemergence, Rate 62 g/ha, scale of 0 to 10 where 0 is no effect and 10 is complete control
[8] = Preemergence, Rate 250 g/ha, scale of 0 to 10 where 0 is no effect and 10 is complete control
[9] = Rate 62 g/ha, Postemergence, scale 0 to 10 (0 no effect, 10 complete control)
[10] = Rate 125 g/ha, Postemergence, scale of 0 to 10 where 0 is no effect and 10 is complete control
[11] = Rate 125 g/ha, Preemergence, scale of 0 to 10 where 0 is no effect and 10 is complete control
[12] = Rate 250 g/ha, Postemergence, scale of 0 to 10 where 0 is no effect and 10 is complete control

## CC(C)N(C(=O)n1oc(=O)n(C(C)C)c1=O)c1cnccn1 [Compound 296]
Smallflower flatsedge; [1]
  S. Flatsedge plant response rating: 0
Smallflower flatsedge; [2]
  S. Flatsedge plant response rating: 0
Smallflower flatsedge; [3]
  S. Flatsedge plant response rating: 0
Smallflower flatsedge; [4]
  S. Flatsedge plant response rating: 0
crabgrass; [5]
  Crabgrass plant response rating: 0
crabgrass; [6]
  Crabgrass plant response rating: 0
crabgrass; [7]
  Crabgrass plant response rating: 0
crabgrass; [8]
  Crabgrass plant response rating: 0
crabgrass; [9]
  Crabgrass plant response rating: 0
crabgrass; [10]
  Crabgrass plant response rating: 0
crabgrass; [11]
  Crabgrass plant response rating: 0
crabgrass; [12]
  Plant response rating, Crabgrass: 0
Giant foxtail; [5]
  Giant foxtail plant response rating: 0
Giant foxtail; [6]
  Giant foxtail plant response rating: 0
Giant foxtail; [7]
  Giant foxtail plant response rating: 0
Giant foxtail; [8]
  Giant foxtail plant response rating: 0
Giant foxtail; [9]
  Giant foxtail plant response rating: 0
Giant foxtail; [10]
  Giant foxtail plant response rating: 0
Giant foxtail; [11]
  Giant foxtail plant response rating: 0
Giant foxtail; [12]
  Plant response rating, Giant foxtail: 0
blackgrass; [5]
  Blackgrass plant response rating: 0
blackgrass; [6]
  Blackgrass plant response rating: 0
blackgrass; [7]
  Blackgrass plant response rating: 0
blackgrass; [8]
  Blackgrass plant response rating: 0
blackgrass; [9]
  Blackgrass plant response rating: 0
blackgrass; [10]
  Blackgrass plant response rating: 0
blackgrass; [11]
  Blackgrass plant response rating: 0
blackgrass; [12]
  Plant response rating, Blackgrass: 0
morningglory; [5]
  Morningglory plant response rating: 0
morningglory; [7]
  Morningglory plant response rating: 0
morningglory; [8]
  Morningglory plant response rating: 0
morningglory; [9]
  Morningglory plant response rating: 0
morningglory; [10]
  Morningglory plant response rating: 0
morningglory; [11]
  Morningglory plant response rating: 0
morningglory; [12]
  Plant response rating, Morningglory: 1
bedstraw; [5]
  Bedstraw plant response rating: 0
bedstraw; [6]
  Bedstraw plant response rating: 0
bedstraw; [7]
  Bedstraw plant response rating: 0
bedstraw; [8]
  Bedstraw plant response rating: 0
bedstraw; [9]
  Bedstraw plant response rating: 0
bedstraw; [10]
  Bedstraw plant response rating: 0
bedstraw; [11]
  Bedstraw plant response rating: 0
bedstraw; [12]
  Plant response rating, Bedstraw: 0
rice; [1]
  Rice plant response rating: 0
rice; [2]
  Rice plant response rating: 0
rice; [3]
  Rice plant response rating: 0
rice; [4]
  Rice plant response rating: 0
pigweed; [5]
  Redroot pigweed plant response rating: 0
pigweed; [7]
  Redroot pigweed plant response rating: 0
pigweed; [8]
  Redroot pigweed plant response rating: 0
pigweed; [9]
  Redroot pigweed plant response rating: 0
pigweed; [10]
  Redroot pigweed plant response rating: 0
pigweed; [11]
  Redroot pigweed plant response rating: 0
pigweed; [12]
  Plant response rating, Redroot pigweed: 0
cocklebur; [5]
  Cocklebur plant response rating: 0
cocklebur; [6]
  Cocklebur plant response rating: 0
cocklebur; [7]
  Cocklebur plant response rating: 0
cocklebur; [8]
  Cocklebur plant response rating: 0
cocklebur; [9]
  Cocklebur plant response rating: 0
cocklebur; [10]
  Cocklebur plant response rating: 0
cocklebur; [11]
  Cocklebur plant response rating: 0
cocklebur; [12]
  Plant response rating, Cocklebur: 0
soybean; [5]
  Soybean plant response rating: 0
soybean; [7]
  Soybean plant response rating: 0
soybean; [8]
  Soybean plant response rating: 0
soybean; [9]
  Soybean plant response rating: 0
soybean; [10]
  Soybean plant response rating: 0
soybean; [11]
  Soybean plant response rating: 0
soybean; [12]
  Plant response rating, Soybean: 1
Surinam grass; [5]
  B. signalgrass plant response rating: 0
Surinam grass; [6]
  B. signalgrass plant response rating: 0
Surinam grass; [7]
  B. signalgrass plant response rating: 0
Surinam grass; [8]
  B. signalgrass plant response rating: 0
Surinam grass; [9]
  B. signalgrass plant response rating: 0
Surinam grass; [10]
  B. signalgrass plant response rating: 0
Surinam grass; [11]
  B. signalgrass plant response rating: 0
Surinam grass; [12]
  Plant response rating, B. signalgrass: 0
bamyardgrass; [1]
  Barnyardgrass plant response rating: 0
bamyardgrass; [2]
  Barnyardgrass plant response rating: 0
bamyardgrass; [3]
  Barnyardgrass plant response rating: 0
bamyardgrass; [4]
  Barnyardgrass plant response rating: 0
Wild oat; [5]
  Wild oats plant response rating: 0
Wild oat; [7]
  Wild oats plant response rating: 0
Wild oat; [8]
  Wild oats plant response rating: 0
Wild oat; [9]
  Wild oats plant response rating: 0
Wild oat; [10]
  Wild oats plant response rating: 0
Wild oat; [12]
  Plant response rating, Wild oats: 0
wheat; [5]
  Wheat plant response rating: 0
wheat; [7]
  Wheat plant response rating: 0
wheat; [8]
  Wheat plant response rating: 0
wheat; [9]
  Wheat plant response rating: 0
wheat; [10]
  Wheat plant response rating: 0
wheat; [11]
  Wheat plant response rating: 0
wheat; [12]
  Plant response rating, Wheat: 0
corn; [5]
  Corn plant response rating: 0
corn; [6]
  Corn plant response rating: 0
corn; [7]
  Corn plant response rating: 0
corn; [8]
  Corn plant response rating: 0
corn; [9]
  Corn plant response rating: 0
corn; [10]
  Corn plant response rating: 0
corn; [11]
  Corn plant response rating: 0
corn; [12]
  Plant response rating, Corn: 0
velvetleaf; [5]
  Velvetleaf plant response rating: 0
velvetleaf; [7]
  Velvetleaf plant response rating: 0
velvetleaf; [8]
  Velvetleaf plant response rating: 0
velvetleaf; [9]
  Velvetleaf plant response rating: 0
velvetleaf; [10]
  Velvetleaf plant response rating: 0
velvetleaf; [11]
  Velvetleaf plant response rating: 0
velvetleaf; [12]
  Plant response rating, Velvetleaf: 0
